Source: patent publication US7662831B2, “Tetracyclic indoles as potassium channel modulators” (Wyeth LLC, priority 2006, dated 2010)

Each molecule was assayed on isolated rat bladder strips (assay: Inhibition of contractions of isolated rat bladder strips (KCl-enhanced contractile activity)). Details: 0.5 h; isolated Sprague-Dawley rat bladder strips, 15 mM KCl added, 30 min challenge per concentration; read-out: IC50 (concentration required to elicit 50% inhibition of pre-drug contractile activity).
Protocol: The compounds of the examples were tested to determine their ability to inhibit contractions of isolated rat bladder strips. See Foster, C. D. et al. Br. J. Pharmacol. 97:281-291, 1989; and Fujii, K. et al. Br. J. Pharmacol. 99:779-785, 1990. Malmgren, A. et al. J. Urol. 143:828-834, 1990, each of which are incorporated herein by reference in its entirety.
Male Sprague-Dawley rats (150-200 g) were obtained from ACE animal suppliers. Animals were allowed free access to food and water.
Animals were euthanized by CO2 asphyxiation followed by a bilateral thoracotomy. The bladder was removed into warm (37 deg. C.) physiological salt solution (PSS) of the following composition (mM): NaCl, 118.4; KCl, 4.7; CaCl2, 2.5; MgSO4.7H2O, 1.2; NaHCO3, 24.9; KH2PO4, 1.2; glucose, 11.1; EDTA, 0.023; gassed with 95% O2/5% CO2; pH 7.4. The bladder was opened and then cut into strips 1-2 mm in width and 7-10 mm in length. The strips were subsequently suspended in a 10 ml tissue bath under an initial resting tension of 1.5 g. The strips were held in place by two surgical clips one of which was attached to a fixed hook while the other was attached to an isometric force transducer. […] The carbachol was then washed out and the tissue allowed to relax to its resting level of activity. Following a further thirty minute period of recovery an additional 15 mM KCl was introduced into the tissue bath. This increase in KCl concentration results in a large increase in the amplitude of spontaneous contractions (and initiation of contractions in previously quiescent strips) superimposed upon a small increase in basal tone. Following stabilization of this enhanced level of contractile activity, incremental increases in the concentration of test compound or vehicle were introduced into the tissue bath. Contractile activity was measured for each compound or vehicle concentration during the last minute of a thirty minute challenge.
Isometric force developed by the bladder strips was measured using a force transducer and recorded on a polygraph. Contractile activity was assessed by measuring either the average amplitude of the contractions (baseline to peak force) occurring during a one min period or, preferably, by integrating the contractile activity with respect to time (one minute measuring period).
The percentage inhibition of contractile activity evoked by each concentration of a given test compounds was used to generate a concentration-response curve. The concentration of test compound required to elicit 50% inhibition of pre-drug contractile activity (IC50 concentration) was calculated from this concentration-response curve. The maximum percentage inhibition of contractile activity evoked by a test compound was also recorded for concentrations of test compound <- or 30 uM.

Row | SMILES | IC50 [nM]
1 | CCC(=O)Nc1cc2c3c(c1)c1c(n3CCC2)CCCCC1 [Example 7, N-5,6,9,10,11,12-hexahydro-4H,8H-cyclohepta[4,5]pyrrolo[3,2,1-ij]quinolin-2-ylpropanamide] | 400 to 550
2 | CCCCC(=O)Nc1cc2c3c(c1)c1c(n3CCC2)CCCCC1 [Example 9, N-5,6,9,10,11,12-hexahydro-4H,8H-cyclohepta[4,5]pyrrolo[3,2,1-ij]quinolin-2-ylpentanamide] | 50 to 1000
3 | O=C(Cc1ccccc1)Nc1cc2c3c(c1)c1c(n3CC2)CCCCC1 [Example 13, N-4,5,8,9,10,11-hexahydro-7H-cyclohepta[b]pyrrolo[3,2,1-hi]indol-2-yl-2-phenylacetamide] | 500 to 600
4 | CC(=O)Nc1cc2c3c(c1)c1c(n3CC2)CCCCC1 [Example 11, N-4,5,8,9,10,11-hexahydro-7H-cyclohepta[b]pyrrolo[3,2,1-hi]indol-2-ylacetamide] | 650 to 700
5 | CC(C)(C)CC(=O)Nc1cc2c3c(c1)c1c(n3CCC2)CCCCC1 [Example 1, N-5,6,9,10,11,12-hexahydro-4H,8H-cyclohepta[4,5]pyrrolo[3,2,1-ij]quinolin-2-yl-3,3-dimethylbutanamide] | 30 to 70
6 | CCCCC(=O)Nc1cc2c3c(c1)c1c(n3CC2)CCCCC1 [Example 12, N-4,5,8,9,10,11-hexahydro-7H-cyclohepta[b]pyrrolo[3,2,1-hi]indol-2-ylpentanamide] | 700 to 1000
7 | CC(C)CC(=O)Nc1cc2c3c(c1)c1c(n3CCC2)CCCCC1 [Example 6, N-5,6,9,10,11,12-hexahydro-4H,8H-cyclohepta[4,5]pyrrolo[3,2,1-ij]quinolin-2-yl-3-methylbutanamide] | 80 to 350
8 | CCCCCC(=O)Nc1cc2c3c(c1)c1c(n3CCC2)CCCCC1 [Example 3, N-5,6,9,10,11,12-hexahydro-4H,8H-cyclohepta[4,5]pyrrolo[3,2,1-ij]quinolin-2-ylhexanamide] | 400 to 2600
9 | CC(C)(C)CC(=O)Nc1cc2c3c(c1)c1c(n3CC2)CCCCC1 [Example 10, N-4,5,8,9,10,11-hexahydro-7H-cyclohepta[b]pyrrolo[3,2,1-hi]indol-2-yl-3,3-dimethylbutanamide] | 150 to 350

Now from value to molecule:

Row | IC50 [nM] | SMILES
10 | 400 to 800 | CCCCCC(=O)Nc1cc2c3c(c1)c1c(n3CCC2)CCCC1 [Example 17, N-5,6,8,9,10,11-hexahydro-4H-pyrido[3,2,1-jk]carbazol-2-ylhexanamide]
11 | 2000 to 3000 | CC(=O)Nc1cc2c3c(c1)c1c(n3CCC2)CCCC1 [Example 19, N-5,6,8,9,10,11-hexahydro-4H-pyrido[3,2,1-jk]carbazol-2-ylacetamide]
12 | 300 to 1200 | O=C(CCC1CCCC1)Nc1cc2c3c(c1)c1c(n3CC2)CCCCC1 [Example 15, 3-cyclopentyl-N-4,5,8,9,10,11-hexahydro-7H-cyclohepta[b]pyrrolo[3,2,1-hi]indol-2-ylpropanamide]
13 | 160 to 700 | CC(C)(C)CC(=O)Nc1cc2c3c(c1)c1c(n3CC2)CCCCCC1 [Example 21, 3,3-dimethyl-N-4,5,7,8,9,10,11,12-octahydrocycloocta[b]pyrrolo[3,2,1-hi]indol-2-ylbutanamide]
14 | 80 to 550 | CCCCCC(=O)Nc1cc2c3c(c1)c1c(n3CC2)CCCCCC1 [Example 20, N-4,5,7,8,9,10,11,12-octahydrocycloocta[b]pyrrolo[3,2,1-hi]indol-2-ylhexanamide]
15 | 800 to 1000 | CC(C)CC(=O)Nc1cc2c3c(c1)c1c(n3CC2)CCCCC1 [Example 14, N-4,5,8,9,10,11-hexahydro-7H-cyclohepta[b]pyrrolo[3,2,1-hi]indol-2-yl-3-methylbutanamide]
16 | 800 to 1000 | CCCCCCC(=O)Nc1cc2c3c(c1)c1c(n3CC2)CCCCCC1 [Example 22, N-4,5,7,8,9,10,11,12-octahydrocycloocta[b]pyrrolo[3,2,1-hi]indol-2-ylheptanamide]
17 | 500 to 550 | CC(C)CC(=O)Nc1cc2c3c(c1)c1c(n3CCC2)CCCC1 [Example 18, N-5,6,8,9,10,11-hexahydro-4H-pyrido[3,2,1-jk]carbazol-2-yl-3-methylbutanamide]

Same assay, conditions: @ 3 μM; isolated rat bladder strips, 15 mM KCl added

Row | SMILES | % Enhancement of Contractility @ 3 μM
18 | O=C(Nc1cc2c3c(c1)c1c(n3CCC2)CCCCC1)C1CCCCC1 [Example 8, N-5,6,9,10,11,12-hexahydro-4H,8H-cyclohepta[4,5]pyrrolo[3,2,1-ij]quinolin-2-ylcyclohexanecarboxamide] | 150-200%
19 | O=C(Nc1cc2c3c(c1)c1c(n3CCC2)CCCCC1)c1cccs1 [Example 5, N-5,6,9,10,11,12-hexahydro-4H,8H-cyclohepta[4,5]pyrrolo[3,2,1-ij]quinolin-2-ylthiophene-2-carboxamide] | 60-90%
20 | CC(C)(C)C(=O)Nc1cc2c3c(c1)c1c(n3CCC2)CCCCC1 [Example 2, N-5,6,9,10,11,12-hexahydro-4H,8H-cyclohepta[4,5]pyrrolo[3,2,1-ij]quinolin-2-yl-2,2-dimethylpropanamide] | 20-100%
21 | CC(C)(C)CC(=O)Nc1cc2c3c(c1)c1c(n3CCC2)CCCC1 [Example 16, N-5,6,8,9,10,11-hexahydro-4H-pyrido[3,2,1-jk]carbazol-2-yl-3,3-dimethylbutanamide] | 80-100%

Same assay, conditions: @ 3 μM; isolated rat bladder strips, 15 mM KCl added; read-out: % Inhibition of Contractility @ 3 μM

Row | SMILES | inhibition at 3 µM [%]
22 | O=C(CCc1ccccc1)Nc1cc2c3c(c1)c1c(n3CCC2)CCCCC1 [Example 4, N-5,6,9,10,11,12-hexahydro-4H,8H-cyclohepta[4,5]pyrrolo[3,2,1-ij]quinolin-2-yl-3-phenylpropanamide] | 5 to 20
23 | CC(C)(C)CC(=O)Nc1cc2c3c(c1)c1c(n3CCC2)C(=O)CCCC1 [Example 23, 3,3-dimethyl-N-(8-oxo-5,6,9,10,11,12-hexahydro-4H,8H-cyclohepta[4,5]pyrrolo[3,2,1-ij]quinolin-2-yl)butanamide] | 25 to 50
